Experiment [1] has as its system CaSki (human cervical cancer intestinal metastatic cells). In words: In vitro proliferation inhibition (CCK-8), CaSki. The settings on record: Ca-Ski, 72 hours, CCK-8, average of three wells in one test. The experiment is classed as cell-based. From the text:
• 1) Cell sources: HeLa (human cervical cancer cells), CaSki (human cervical cancer intestinal metastasis cells), Huh7 (human liver cancer cells), HepG2 (human liver cancer cells), Hep3B (human liver cancer cells) were purchased from the Chinese Academy of Sciences cell bank (Shanghai); LO2 (human normal liver cells) and HcerEpic (human normal uterine epithelial cells) were from ATCC. • 2) Cell culture and passage: The cell culture and passage method is the same as that described in “The inhibitory effect of compounds on the OCT4 protein in tumor stem cells (CSC)”. • 3) Cell dosing treatment: The each type of cells mentioned above was digested, counted, and inoculated in each well of the 96 well cell culture plate (#3988, Corning) at a density of 5000 cells/200 μl culture medium. […] Then, the original culture medium was replaced with complete culture medium containing gradient diluted KZT-A5 (each concentration with 3 repeated wells) as well as DMSO (#D5879, Sigma Aldrich) solvent control, and they are cultured for additional 72 hours. • 4) Pharmacodynamic test and statistics: First, the morphology of cells treated with the above compounds was observed, photographed and recorded using an inverted phase contrast microscope (X71, Olympus). […] Then the OD450 nm absorbance value (OD value) was measured on a multifunctional enzyme-linked immunosorbent assay (168-1130, Bio Rad). […]

Experiment [2] concerns Huh7 (human liver cancer cells). Briefly: In vitro proliferation inhibition (CCK-8), Huh7. The format is cell-based. An excerpt: • 1) Cell sources: HeLa (human cervical cancer cells), CaSki (human cervical cancer intestinal metastasis cells), Huh7 (human liver cancer cells), HepG2 (human liver cancer cells), Hep3B (human liver cancer cells) were purchased from the Chinese Academy of Sciences cell bank (Shanghai); LO2 (human normal liver cells) and HcerEpic (human normal uterine epithelial cells) were from ATCC. • 2) Cell culture and passage: The cell culture and passage method is the same as that described in “The inhibitory effect of compounds on the OCT4 protein in tumor stem cells (CSC)”. • 3) Cell dosing treatment: The each type of cells mentioned above was digested, counted, and inoculated in each well of the 96 well cell culture plate (#3988, Corning) at a density of 5000 cells/200 μl culture medium. They were cultured in a cell culture incubator at 37° C. and 5% CO2 for 24 hours to allow the cells to fully adherent to the wall. Then, the original culture medium was replaced with complete culture medium containing gradient diluted KZT-A5 (each concentration with 3 repeated wells) as well as DMSO (#D5879, Sigma Aldrich) solvent control, and they are cultured for additional 72 hours. • 4) Pharmacodynamic test and statistics: First, the morphology of cells treated with the above compounds was observed, photographed and recorded using an inverted phase contrast microscope (X71, Olympus). Then the original culture medium was replaced with phenol red free culture medium containing CCK-8 detection reagent (#E606335, Shanghai Shenggong) respectively, and they are cultured in the incubator for additional 2 hours. Then the OD450 nm absorbance value (OD value) was measured on a multifunctional enzyme-linked immunosorbent assay (168-1130, Bio Rad). After the cells were treated with the test compound, the equations for calculating the cell survival rate or cell growth rate is: survival rate=GD value of the treated group/OD value of the control group×100%; the equations for calculating the growth inhibition rate of compounds on cell proliferation is: inhibition rate=(OD value of control group−OD value of the treated group)/OD value of control group×100%. Further, the IC50 of each compound was calculated in SPSS based on the inhibition rate.
• 1) Cell sources: Huh7 (human liver cancer cells), HepG2 (human liver cancer cells), Hep3B (human liver cancer cells), and HeLa (human cervical cancer cells) were all purchased from the Chinese Academy of Sciences cell bank (Shanghai), while LO2 (human normal liver cells) was obtained from ATCC. • 2) Cell culture and passage: The cell culture and passage method is the same as that described in “The inhibitory effect of compounds on human tumor cell lines from different tissue sources (1)”. • 3) Cell dosing treatment: The cell dosing treatment method is the same as that described in “The inhibitory effect of compounds on human tumor cell lines from different tissue sources (1). • 4) Pharmacodynamic test and statistics: The pharmacodynamic test and statistics method is the same as that described in “The inhibitory effect of compounds on human tumor cell lines from different tissue sources (1)”. The IC50 value data of the compound on each type of tumor cells is the average±standard deviation of three wells in one test.

For experiment [3], the system named is JAK1/2-STAT3 signaling pathway. Briefly: Inhibitory effect on JAK/STAT signaling pathway biomarkers in HeLa cells (Western blot). The format is cell-based, human. As to conditions: HeLa 3A11, 1, 10, 100 μM, 72 hours, FIG. 4. On the procedure: • 1) Cell source: HeLa cell line 3A11 with endogenous high expression of OCT4, prepared by the inventor's laboratory. • 2) Cell culture and passage: The cell culture and passage method is the same as that described in “The inhibitory effect of compounds on the OCT4 protein in tumor stem cells (CSC)”. • 3) Cell dosing treatment: The above-mentioned HeLa cells were digested, counted, and inoculated into each well of the 96 well cell culture plate (#3988, Corning) at a density of 5000 cells/200 μl culture medium. They were cultured in a cell culture incubator at 37° C. and 5% CO2 for 24 hours to allow the cells to fully adherent to the wall. Then, the original culture medium was replaced with complete culture medium containing 1 μM, 10 μM, and 100 μM KZT compounds or AH057 (each compound at each concentration with 3 repeated wells) as well as DMSO (#D5879, Sigma Aldrich) solvent control, and they are cultured for additional 72 hours. • 4) Preparation of test samples: The preparation of test samples method is the same as that described in “The inhibitory effect of compounds on the OCT4 protein in tumor stem cells (CSC)”. • 5) Detection of JAK/STAT signaling pathway biomarker: HeLa cells have been reported to continuously activate JAK1/2 and further activate STAT3 through the IL-6 autocrine pathway. […]
For orientation: A western blot detects proteins with antibodies after separation by electrophoresis.

Experiment [4] deals with Hep3B (human liver cancer cells). In words: In vitro proliferation inhibition (CCK-8), Hep3B. The experiment is classed as cell-based. As to conditions: for IC50: Homo sapiens. From the text: (§1) • 1) Cell sources: HeLa (human cervical cancer cells), CaSki (human cervical cancer intestinal metastasis cells), Huh7 (human liver cancer cells), HepG2 (human liver cancer cells), Hep3B (human liver cancer cells) were purchased from the Chinese Academy of Sciences cell bank (Shanghai); LO2 (human normal liver cells) and HcerEpic (human normal uterine epithelial cells) were from ATCC. • 2) Cell culture and passage: The cell culture and passage method is the same as that described in “The inhibitory effect of compounds on the OCT4 protein in tumor stem cells (CSC)”. • 3) Cell dosing treatment: The each type of cells mentioned above was digested, counted, and inoculated in each well of the 96 well cell culture plate (#3988, Corning) at a density of 5000 cells/200 μl culture medium. They were cultured in a cell culture incubator at 37° C. and 5% CO2 for 24 hours to allow the cells to fully adherent to the wall. Then, the original culture medium was replaced with complete culture medium containing gradient diluted KZT-A5 (each concentration with 3 repeated wells) as well as DMSO (#D5879, Sigma Aldrich) solvent control, and they are cultured for additional 72 hours. • 4) Pharmacodynamic test and statistics: First, the morphology of cells treated with the above compounds was observed, photographed and recorded using an inverted phase contrast microscope (X71, Olympus). Then the original culture medium was replaced with phenol red free culture medium containing CCK-8 detection reagent (#E606335, Shanghai Shenggong) respectively, and they are cultured in the incubator for additional 2 hours. Then the OD450 nm absorbance value (OD value) was measured on a multifunctional enzyme-linked immunosorbent assay (168-1130, Bio Rad). After the cells were treated with the test compound, the equations for calculating the cell survival rate or cell growth rate is: survival rate=GD value of the treated group/OD value of the control group×100%; the equations for calculating the growth inhibition rate of compounds on cell proliferation is: inhibition rate=(OD value of control group−OD value of the treated group)/OD value of control group×100%. Further, the IC50 of each compound was calculated in SPSS based on the inhibition rate. […]

In experiment [5] the test system is HepG2 (human liver cancer cells). Briefly: In vitro proliferation inhibition (CCK-8), HepG2. The experiment is classed as cell-based. The settings on record: for IC50: Homo sapiens.
From the text: as §1

The subject of experiment [6] is Caski cells. In words: Tumor microspheres cultured in Caski cells. The experiment is classed as cell-based, human. As to conditions: 10 μM, 48 hours. On the procedure: • 1) Cell sources: cervical cancer cells HeLa and Caski, liver cancer cells Hep3B and Huh7 were all purchased from the Chinese Academy of Sciences cell bank (Shanghai). • 2) Tumor microsphere culture: The specific culture method for tumor microspheres can be found in the literature (Cheng J et al. Tryptophan derivatives regulate the transfer of Oct4 in stem-like cancer cells. Nat Commun. 2015, 6:7209). Each tumor cell was cultured separately in a medium containing 2% B27, 10 ng/ml BFGF, 5 ng/ml EGF, and 10 ng/ml LIF to form CSC rich tumor microspheres. • 3) Cell dosing treatment: HeLa cell lines and Huh7 cell lines were inoculated in a 6-well plate containing the aforementioned culture medium at a density of 200 cells per well, while Hep3B cell lines and Caski cell lines were inoculated in a 6-well plate containing the aforementioned culture medium at a density of 2000 cells per well. KZT-A5 or AH057 at concentrations of 1 μM or 10 μM was added, and the morphology of tumor microspheres was observed, photographed and recorded after 48 hours of treatment.

Molecules are shown by their SMILES. A value given as a limit tells only on which side of the number the result lay.

A word on the IC50: it is the concentration that inhibits the measured activity by half. On to `COc1cc(/C=C2\CCc3c([nH]c4ccc(C)cc34)C2=O)ccc1O` [KZT-A5], for which the IC50 in experiment [1] was 6.38 µM; in experiment [2] (Homo sapiens, Huh-7, 72 h, Huh7, 72 hours, CCK-8, average of three wells in one test) it was less than 1 µM; in experiment [2] (Homo sapiens, Huh-7, Huh7, test (2), average±standard deviation of three wells), 1.42 ± 0.12 µM; in experiment [2] (Huh7, 72 hours, CCK-8, average of three wells in one test) it was 0.8 µM; in experiment [4] (72 hours, CCK-8, average of three wells in one test), 36.6 µM; in experiment [4] (test (2), average±standard deviation of three wells), 23.5 ± 1.51 µM. Moreover, the IC50 in experiment [5] (HepG2, 72 hours, CCK-8, average of three wells in one test) came out at 3.13 µM; in experiment [5] (HepG2, test (2), average±standard deviation of three wells), 3.16 ± 0.08 µM. The “inhibitory effect on viability compared with AH057” value is recorded as “more significant inhibitory effect” in experiment [2] (Huh7, FIG. 6) and “more significant inhibitory effect” in experiment [5] (HepG2, FIG. 6). Further, the “inhibition of activation of JAK1/2-STAT3 signaling pathway” value in experiment [3] is listed as “effectively inhibit the activation of the JAK1/2-STAT3 signaling pathway in a dose-dependent manner”. In experiment [4] (Table 3), the “inhibitory effect compared with AH057” value is listed as “comparable to AH057”. For the same compound, the “inhibitory effect on tumor microspheres compared with AH057” value in experiment [6] is “more significant than that of the control compound AH057”.
